From the kinase profiling compilation of Christmann-Franck et al. (2016)

Legend:
Experiment in all cases: KINOMEscan competition binding
Conditions in all cases: compound 10.0 µM
[1] = target: ADCK3 (human) (UniProt Q8NI60)
[2] = target: AURKA (human) (UniProt O14965)
[3] = target: AXL (human) (UniProt P30530)
[4] = target: BMX (human) (UniProt P51813)
[5] = target: BRSK1 (human) (UniProt Q8TDC3)
[6] = target: CAMK4 (human) (UniProt Q16566)
[7] = target: CRK2 (P.falciparum) (UniProt P61075)
[8] = target: CSNK1D (human) (UniProt P48730)
[9] = target: CSNK2A2 (human) (UniProt P19784)
[10] = target: DSTYK (human) (UniProt Q6XUX3)
[11] = target: EGFR (human) (UniProt P00533)
[12] = target: ERBB3 (human) (UniProt P21860)
[13] = target: FES (human) (UniProt P07332)
[14] = target: ICK (human) (UniProt Q9UPZ9)
[15] = target: IRAK3 (human) (UniProt Q9Y616)
[16] = target: LIMK1 (human) (UniProt P53667)
[17] = target: MAP3K10 (human) (UniProt Q02779)
[18] = target: MAP4K3 (human) (UniProt Q8IVH8)
[19] = target: MAP4K4 (human) (UniProt O95819)
[20] = target: MAPK1 (human) (UniProt P28482)
[21] = target: MAPK11 (human) (UniProt Q15759)
[22] = target: MARK1 (human) (UniProt Q9P0L2)
[23] = target: MATK (human) (UniProt P42679)
[24] = target: MELK (human) (UniProt Q14680)
[25] = target: MTOR (human) (UniProt P42345)
[26] = target: MYLK3 (human) (UniProt Q32MK0)
[27] = target: NLK (human) (UniProt Q9UBE8)
[28] = target: NUAK1 (human) (UniProt O60285)
[29] = target: PDPK1 (human) (UniProt O15530)
[30] = system: PIK3CA (human), P42336 [E545K]
[31] = target: PLK2 (human) (UniProt Q9NYY3)
[32] = target: PLK4 (human) (UniProt O00444)
[33] = target: PTK2 (human) (UniProt Q05397)
[34] = target: PTK6 (human) (UniProt Q13882)
[35] = target: RPS6KA2 KD1 (human) (UniProt Q15349)
[36] = target: RPS6KA6 KD1 (human) (UniProt Q9UK32)
[37] = target: STK16 (human) (UniProt O75716)
[38] = target: STK35 (human) (UniProt Q8TDR2)
[39] = target: TEK (human) (UniProt Q02763)
[40] = target: TIE1 (human) (UniProt P35590)
[41] = target: YES1 (human) (UniProt P07947)

MAP4K4 (human), sequence (O95819 whole entry, looked up): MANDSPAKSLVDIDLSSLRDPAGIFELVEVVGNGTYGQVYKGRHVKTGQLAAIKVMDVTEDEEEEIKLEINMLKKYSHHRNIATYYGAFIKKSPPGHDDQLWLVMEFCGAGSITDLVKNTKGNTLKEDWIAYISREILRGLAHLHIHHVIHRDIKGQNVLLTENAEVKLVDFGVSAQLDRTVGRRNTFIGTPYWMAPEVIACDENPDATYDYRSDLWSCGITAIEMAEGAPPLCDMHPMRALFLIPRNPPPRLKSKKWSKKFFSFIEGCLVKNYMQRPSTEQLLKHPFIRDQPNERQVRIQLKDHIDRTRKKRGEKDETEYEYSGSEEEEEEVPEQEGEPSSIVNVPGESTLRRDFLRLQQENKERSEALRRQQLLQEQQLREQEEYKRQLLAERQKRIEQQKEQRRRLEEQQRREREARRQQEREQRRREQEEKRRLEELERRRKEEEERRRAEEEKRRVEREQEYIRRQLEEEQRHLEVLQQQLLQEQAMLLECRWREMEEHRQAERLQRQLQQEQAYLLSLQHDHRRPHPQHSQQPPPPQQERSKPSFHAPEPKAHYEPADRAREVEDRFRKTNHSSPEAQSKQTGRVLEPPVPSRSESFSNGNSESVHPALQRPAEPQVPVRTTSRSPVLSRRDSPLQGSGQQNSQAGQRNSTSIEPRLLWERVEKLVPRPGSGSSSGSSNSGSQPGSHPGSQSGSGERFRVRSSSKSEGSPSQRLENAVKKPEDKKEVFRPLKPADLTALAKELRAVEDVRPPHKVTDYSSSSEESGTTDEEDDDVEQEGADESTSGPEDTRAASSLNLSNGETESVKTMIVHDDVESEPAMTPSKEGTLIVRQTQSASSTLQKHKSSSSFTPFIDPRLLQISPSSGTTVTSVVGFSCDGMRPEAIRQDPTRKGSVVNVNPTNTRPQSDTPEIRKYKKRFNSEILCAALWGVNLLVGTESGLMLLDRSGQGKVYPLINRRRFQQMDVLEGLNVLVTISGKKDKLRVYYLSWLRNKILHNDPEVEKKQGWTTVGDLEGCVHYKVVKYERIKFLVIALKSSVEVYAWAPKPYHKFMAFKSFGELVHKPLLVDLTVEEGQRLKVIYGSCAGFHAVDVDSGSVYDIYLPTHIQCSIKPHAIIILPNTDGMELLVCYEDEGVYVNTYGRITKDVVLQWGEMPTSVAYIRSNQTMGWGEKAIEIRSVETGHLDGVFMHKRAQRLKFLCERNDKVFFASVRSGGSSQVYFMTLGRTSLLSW
RPS6KA2 KD1 (human), sequence (Q15349 whole entry, looked up): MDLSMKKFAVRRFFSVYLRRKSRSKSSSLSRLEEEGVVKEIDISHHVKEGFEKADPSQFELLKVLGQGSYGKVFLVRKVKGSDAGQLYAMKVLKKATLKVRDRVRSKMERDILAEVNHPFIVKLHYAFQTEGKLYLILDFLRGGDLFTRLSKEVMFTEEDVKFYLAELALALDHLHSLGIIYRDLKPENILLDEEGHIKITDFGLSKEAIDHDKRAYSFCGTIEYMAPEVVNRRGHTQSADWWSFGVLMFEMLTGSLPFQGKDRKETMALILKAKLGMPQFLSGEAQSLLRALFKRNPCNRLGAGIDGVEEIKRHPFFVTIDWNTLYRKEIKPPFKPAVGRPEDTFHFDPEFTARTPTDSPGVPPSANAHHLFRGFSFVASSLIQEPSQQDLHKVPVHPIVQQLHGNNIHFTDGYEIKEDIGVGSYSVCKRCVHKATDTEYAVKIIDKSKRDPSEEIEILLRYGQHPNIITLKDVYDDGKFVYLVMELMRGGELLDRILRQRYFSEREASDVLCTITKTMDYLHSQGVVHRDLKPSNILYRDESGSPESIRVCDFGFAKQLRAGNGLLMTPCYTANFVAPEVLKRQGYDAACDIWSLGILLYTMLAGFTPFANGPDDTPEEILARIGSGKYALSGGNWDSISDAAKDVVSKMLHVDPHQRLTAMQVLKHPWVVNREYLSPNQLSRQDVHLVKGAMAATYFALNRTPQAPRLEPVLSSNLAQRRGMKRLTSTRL
MATK (human), sequence (P42679 whole entry, looked up): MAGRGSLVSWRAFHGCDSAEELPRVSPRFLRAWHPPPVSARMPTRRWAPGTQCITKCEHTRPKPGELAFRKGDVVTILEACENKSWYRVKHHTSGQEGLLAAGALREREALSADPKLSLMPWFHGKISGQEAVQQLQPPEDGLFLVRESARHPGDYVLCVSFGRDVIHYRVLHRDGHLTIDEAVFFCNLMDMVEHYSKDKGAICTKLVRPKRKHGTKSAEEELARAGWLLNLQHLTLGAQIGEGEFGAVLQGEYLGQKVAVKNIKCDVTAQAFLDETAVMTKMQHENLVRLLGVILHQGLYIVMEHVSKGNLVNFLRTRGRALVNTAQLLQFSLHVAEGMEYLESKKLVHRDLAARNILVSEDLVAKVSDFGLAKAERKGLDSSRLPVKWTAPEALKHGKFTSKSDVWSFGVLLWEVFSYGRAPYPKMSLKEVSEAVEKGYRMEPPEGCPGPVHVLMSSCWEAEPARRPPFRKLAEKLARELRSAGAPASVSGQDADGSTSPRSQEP
EGFR (human), sequence (P00533 whole entry, looked up): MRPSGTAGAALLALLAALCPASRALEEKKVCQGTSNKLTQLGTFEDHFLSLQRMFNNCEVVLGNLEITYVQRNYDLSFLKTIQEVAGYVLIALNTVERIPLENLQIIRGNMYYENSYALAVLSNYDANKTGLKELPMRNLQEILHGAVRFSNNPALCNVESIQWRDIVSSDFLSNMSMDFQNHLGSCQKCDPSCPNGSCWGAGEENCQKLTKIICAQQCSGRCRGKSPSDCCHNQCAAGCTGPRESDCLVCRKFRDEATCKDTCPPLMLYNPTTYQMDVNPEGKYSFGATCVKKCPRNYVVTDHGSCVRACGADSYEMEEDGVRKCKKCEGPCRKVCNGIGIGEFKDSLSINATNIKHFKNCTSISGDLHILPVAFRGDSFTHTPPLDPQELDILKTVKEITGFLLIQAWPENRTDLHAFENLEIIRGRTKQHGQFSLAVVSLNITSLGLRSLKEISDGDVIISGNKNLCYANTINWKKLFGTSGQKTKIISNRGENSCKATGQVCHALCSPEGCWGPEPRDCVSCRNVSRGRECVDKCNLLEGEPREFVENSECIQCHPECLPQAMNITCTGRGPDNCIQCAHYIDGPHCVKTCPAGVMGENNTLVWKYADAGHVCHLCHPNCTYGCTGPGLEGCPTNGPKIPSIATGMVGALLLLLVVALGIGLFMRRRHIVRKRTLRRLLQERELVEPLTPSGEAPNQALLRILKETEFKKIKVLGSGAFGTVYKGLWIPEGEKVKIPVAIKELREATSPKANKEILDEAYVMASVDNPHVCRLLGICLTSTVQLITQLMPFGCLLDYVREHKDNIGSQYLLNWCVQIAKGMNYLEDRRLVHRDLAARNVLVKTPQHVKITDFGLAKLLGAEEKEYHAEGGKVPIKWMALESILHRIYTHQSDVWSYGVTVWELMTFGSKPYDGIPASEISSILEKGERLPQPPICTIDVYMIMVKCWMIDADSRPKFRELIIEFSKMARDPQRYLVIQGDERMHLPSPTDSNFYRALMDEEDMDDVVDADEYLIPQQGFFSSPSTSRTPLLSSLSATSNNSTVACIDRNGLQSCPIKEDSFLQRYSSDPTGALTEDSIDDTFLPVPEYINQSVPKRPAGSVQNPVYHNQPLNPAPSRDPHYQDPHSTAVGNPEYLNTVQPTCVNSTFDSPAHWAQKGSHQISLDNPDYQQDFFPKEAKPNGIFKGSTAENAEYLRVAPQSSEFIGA
DSTYK (human), sequence (Q6XUX3 whole entry, looked up): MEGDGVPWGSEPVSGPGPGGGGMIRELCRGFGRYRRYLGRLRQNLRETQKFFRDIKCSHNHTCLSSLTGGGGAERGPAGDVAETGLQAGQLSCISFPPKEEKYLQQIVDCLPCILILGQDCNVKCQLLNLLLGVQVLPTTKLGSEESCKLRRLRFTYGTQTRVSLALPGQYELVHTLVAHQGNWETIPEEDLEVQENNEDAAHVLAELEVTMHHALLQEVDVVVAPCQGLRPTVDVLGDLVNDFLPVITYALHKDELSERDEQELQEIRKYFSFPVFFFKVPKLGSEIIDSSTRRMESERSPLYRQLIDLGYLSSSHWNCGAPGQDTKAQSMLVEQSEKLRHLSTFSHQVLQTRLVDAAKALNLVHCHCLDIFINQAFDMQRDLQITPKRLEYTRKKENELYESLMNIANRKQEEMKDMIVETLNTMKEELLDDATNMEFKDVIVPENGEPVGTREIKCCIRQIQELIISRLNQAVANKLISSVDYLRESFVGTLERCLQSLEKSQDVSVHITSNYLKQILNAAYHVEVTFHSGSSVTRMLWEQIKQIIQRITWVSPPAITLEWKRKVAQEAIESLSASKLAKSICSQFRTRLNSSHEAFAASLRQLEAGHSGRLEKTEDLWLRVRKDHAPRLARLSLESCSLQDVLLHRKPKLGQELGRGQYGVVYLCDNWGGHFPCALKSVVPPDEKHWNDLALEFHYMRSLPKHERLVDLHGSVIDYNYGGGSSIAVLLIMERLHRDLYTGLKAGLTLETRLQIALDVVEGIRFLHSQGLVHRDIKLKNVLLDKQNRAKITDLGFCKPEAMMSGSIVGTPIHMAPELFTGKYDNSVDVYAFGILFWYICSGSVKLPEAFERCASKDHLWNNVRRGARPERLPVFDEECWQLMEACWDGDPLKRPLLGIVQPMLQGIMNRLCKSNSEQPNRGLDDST
MAPK11 (human), sequence (Q15759 whole entry, looked up): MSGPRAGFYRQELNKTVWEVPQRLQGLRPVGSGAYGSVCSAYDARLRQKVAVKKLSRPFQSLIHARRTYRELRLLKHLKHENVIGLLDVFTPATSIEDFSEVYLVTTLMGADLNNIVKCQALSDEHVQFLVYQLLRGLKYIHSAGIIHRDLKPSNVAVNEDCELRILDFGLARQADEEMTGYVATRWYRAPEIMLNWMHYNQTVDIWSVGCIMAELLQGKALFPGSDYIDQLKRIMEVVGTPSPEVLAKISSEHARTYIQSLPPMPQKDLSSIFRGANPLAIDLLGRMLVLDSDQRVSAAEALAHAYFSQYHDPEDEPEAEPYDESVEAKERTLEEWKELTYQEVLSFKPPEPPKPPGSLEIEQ

COC(=O)Nc1ccc(-c2nc(N3CCOCC3)c3cnn(C4CCN(C(=O)OC)CC4)c3n2)cc1
kinase still bound, per cent of control [1]: 80% | kinase still bound, per cent of control [2]: 85% | kinase still bound, per cent of control [3]: 100% | kinase still bound, per cent of control [4]: 94% | kinase still bound, per cent of control [5]: 95% | kinase still bound, per cent of control [6]: 100% | kinase still bound, per cent of control [7]: 95% | per cent of control [8]: 100% | kinase still bound, per cent of control [9]: 83% | kinase still bound, per cent of control [10]: 100% | kinase still bound, per cent of control [11]: 100% | kinase still bound, per cent of control [12]: 100% | kinase still bound, per cent of control [13]: 100% | kinase still bound, per cent of control [14]: 85% | kinase still bound, per cent of control [15]: 79% | kinase still bound, per cent of control [16]: 100% | kinase still bound, per cent of control [17]: 100% | kinase still bound, per cent of control [18]: 74% | kinase still bound, per cent of control [19]: 88% | kinase still bound, per cent of control [20]: 100% | kinase still bound, per cent of control [21]: 80% | kinase still bound, per cent of control [22]: 100% | kinase still bound, per cent of control [23]: 100% | kinase still bound, per cent of control [24]: 86% | kinase still bound, per cent of control [25]: 0% | kinase still bound, per cent of control [26]: 100% | kinase still bound, per cent of control [27]: 99% | kinase still bound, per cent of control [28]: 72% | kinase still bound, per cent of control [29]: 85% | kinase still bound, per cent of control [30]: 4.9% | kinase still bound, per cent of control [31]: 96% | kinase still bound, per cent of control [32]: 100% | kinase still bound, per cent of control [33]: 94% | kinase still bound, per cent of control [34]: 88% | kinase still bound, per cent of control [35]: 100% | kinase still bound, per cent of control [36]: 86% | kinase still bound, per cent of control [37]: 77% | kinase still bound, per cent of control [38]: 91% | kinase still bound, per cent of control [39]: 100% | kinase still bound, per cent of control [40]: 99% | kinase still bound, per cent of control [41]: 97%
